These results are taken from patent US20150164899A1, “INHIBITION OF ADAPTOR ASSOCIATED KINASE 1 FOR THE TREATMENT OF PAIN” (priority 2012, published 2015).

For this assay, the system named is formalin-induced paw flinching. As to the kind of experiment: formalin paw test. The format is in vivo. The note with it: mice. The procedure:
See example 5.4.1, above. The same test was used to confirm that the administration of an AAK1 inhibitor can also affect pain response.
Mice were tested for nociception with Automatic Nociception Analyzers (purchased from the Ozaki lab at University of California, San Diego). A metal band was placed around the left hind paw of each mouse with superglue 30 minutes prior to testing. After the 30-minute acclimation period, 20 μl of 5% formalin was subcutaneously injected in the dorsal surface of the left hind paw. Mice were individually housed in cylindrical chambers for 45 minutes. Fresh 5% formalin solution was prepared by diluting formaldehyde (Formalde-fresh 20%, Fisher Scientific, Fair Lawn, N.J.) with distilled water. Investigatory compounds were administered 30 minutes prior to formalin injection.
A computer software recorded flinches per minute, total flinches for Phase I (acute phase=first 8 minutes), and total flinches for Phase II (tonic phase between 20-40 minutes) through an electromagnetic field. See Yaksh T L, Ozaki G, McCumber D, Rathbun M, Svensson C, Malkmus S, Yaksh M C. An automated flinch detecting system for use in the formalin nociceptive bioassay. J Appl Physiol., 2001; 90:2386-402.
Various compounds of the invention were tested at different doses. Gabapentin and pregabalin were used as positive controls. Results are shown below in Table 2, wherein “*” means an effect equal to or greater than 50 percent of that of gabapentin at 200 mpk, “**” means an effect equal to or greater than 100 percent of that of gabapentin at 200 mpk, “sc” means subcutaneous administration, “ip” means in intraperitoneal administration, and “po” means oral administration.

For the compound `NCc1ccc(-c2cnc3ccc(NCCOC4CCCC4)nn23)cc1` [3-(4-(aminomethyl)phenyl)-N-(2-(cyclopentyloxy)ethyl)imidazo[1,2-b]pyridazin-6-amine], the Effect entry reads like this: (60 mpk sc) “** (an effect equal to or greater than 100% of that of gabapentin at 200 mpk)”; (100 mpk sc) “** (an effect equal to or greater than 100% of that of gabapentin at 200 mpk)”.
In the case of `CC(C)(C)OCCNc1ccc2ncc(-c3ccc(CN)cc3)n2n1` [3-(4-(aminomethyl)phenyl)-N-(2-(tert-butoxy)ethyl)imidazo[1,2-b]pyridazin-6-amine], where the note is “60 mpk sc”, the Effect result was “** (an effect equal to or greater than 100% of that of gabapentin at 200 mpk)”.
As to `CC(C)(C)OCCCNc1ccc2ncc(-c3ccc(CN)cc3)n2n1` [3-(4-(aminomethyl)phenyl)-N-(3-(tert-butoxy)propyl)imidazo[1,2-b]pyridazin-6-amine], where the note is “60 mpk sc”, the Effect result was “** (an effect equal to or greater than 100% of that of gabapentin at 200 mpk)”.
On to `NCc1ccc(-c2cnc3ccc(NCCCc4ccccc4)nn23)cc1` [3-(4-(aminomethyl)phenyl)-N-(3-phenylpropyl)imidazo[1,2-b]pyridazin-6-amine], for which, where the note is “30 mpk ip”, the Effect result is “** (an effect equal to or greater than 100% of that of gabapentin at 200 mpk)”.
For `CC(C)C[C@@H](N)COc1ccc2c(c1)OCc1cnccc1-2` [(R)-1-(5H-chromeno[3,4-c]pyridin-8-yloxy)-4-methylpentan-2-amine], the Effect is, setting by setting: (10 mpk sc, given as a number, relative to gabapentin at 200 mpk) 45%; (30 mpk sc) “* (an effect equal to or greater than 50% of that of gabapentin at 200 mpk)”.
Regarding `COc1ncccc1-c1cnc2ccc(N3CC[C@H](N(C)C(=O)OC(C)C)C3)nn12` [(S)-isopropyl (1-(3-(2-methoxypyridin-3-yl)imidazo[1,2-b]pyridazin-6-yl)pyrrolidin-3-yl)(methyl)carbamate], the Effect result (10 mpk po) is reported as “* (an effect equal to or greater than 50% of that of gabapentin at 200 mpk)”, the Effect result (30 mpk po) is given as “** (an effect equal to or greater than 100% of that of gabapentin at 200 mpk)” and the Effect result (60 mpk po) is “** (an effect equal to or greater than 100% of that of gabapentin at 200 mpk)”.
Turning to `CC(C)(C)OC(=O)N1CCC[C@H]1CNc1ccc2ncc(-c3ccc(CN)cc3)n2n1` [(S)-tert-butyl 2-(((3-(4-(aminomethyl)phenyl)imidazo[1,2-b]pyridazin-6-yl)amino)methyl)pyrrolidine-1-carboxylate], for the setting “60 mpk sc”, the Effect entry is on record as “** (an effect equal to or greater than 100% of that of gabapentin at 200 mpk)”.
For `CC(C)(C)OC(=O)N1CCC[C@H]1CNc1ccc2ncc(Br)n2n1` [(S)-tert-butyl 2-(((3-bromoimidazo[1,2-b]pyridazin-6-yl)amino)methyl)pyrrolidine-1-carboxylate], the Effect entry runs as follows: (30 mpk sc) “** (an effect equal to or greater than 100% of that of gabapentin at 200 mpk)”; (60 mpk sc) “** (an effect equal to or greater than 100% of that of gabapentin at 200 mpk)”.
Turning to `NCC1(CC(=O)O)CCCCC1` [Gabapentin, reference compound], the Effect entry is recorded as “* (an effect equal to or greater than 50% of that of gabapentin at 200 mpk)” (50 mpk sc) and “** (an effect equal to or greater than 100% of that of gabapentin at 200 mpk)” (200 mpk sc).
With `CCCCNc1ccc2ncc(-c3ccc(C(=O)NCCN)cc3)n2n1` [N-(2-aminoethyl)-4-(6-(butylamino)imidazo[1,2-b]pyridazin-3-yl)benzamide], the Effect entry (30 mpk ip) is “** (an effect equal to or greater than 100% of that of gabapentin at 200 mpk)”.
For `CC(C)C[C@H](CN)CC(=O)O` [Pregabalin, reference compound], the Effect entry (50 mpk sc) is “* (an effect equal to or greater than 50% of that of gabapentin at 200 mpk)”.
Consider `COc1ccccc1-c1cnc2ccc(N3CCN(C(=O)OC(C)C)CC3)nn12` [isopropyl 4-(3-(2-methoxyphenyl)imidazo[1,2-b]pyridazin-6-yl)piperazine-1-carboxylate], for which the Effect result is, setting by setting: (30 mpk sc) “** (an effect equal to or greater than 100% of that of gabapentin at 200 mpk)”; (60 mpk sc) “** (an effect equal to or greater than 100% of that of gabapentin at 200 mpk)”.
